Assays:
[1] = tested on: Mycobacterium tuberculosis; test: Growth inhibition of multi-drug resistant Mycobacterium tuberculosis 05TB42059; assay type: functional
[2] = tested on: Mycobacterium tuberculosis; test: Growth inhibition of multi-drug resistant Mycobacterium tuberculosis DQ707 harboring katG S315N mutant; assay type: functional

SMILES: Cc1c(-c2ccc(N3CCC(F)(F)C3)cc2)[nH]c2cc(F)cc(F)c2c1=O
- IC50 [1]: 140 nM
- IC50 [2]: 548 nM

— ChEMBL document CHEMBL4049411, “Rational Design, Synthesis, and Biological Evaluation of Heterocyclic Quinolones Targeting the Respiratory Chain of Mycobacterium tuberculosis” (J Med Chem, 2017)
